These compounds were tested on IL-17A-induced G-CSF production in human normal keratinocyte (NHK) (assay: NHK assay: IL-17A-induced G-CSF production in normal human keratinocytes). Details: Homo sapiens, Keratinocyte, 24 h, IL-17A 5 ng/mL, G-CSF by HTRF, average if tested more than once.
Assay type: cell-based
Procedure: IL-17A acts directly on keratinocytes through binding to dimeric receptor IL-17RA/RC and drives the production of a number of inflammatory mediators known to be elevated in psoriasis lesional tissue. IL-17A small molecule inhibitors that block the IL-17A to interact with IL-17R would inhibit the IL-17A signaling in its targeted cells such as keratinocytes. The compound functional activity is evaluated for its impact on IL-17A-induced G-CSF production in human normal keratinocyte (NHK).
Adult normal human keratinocytes are cultured in keratinocyte growth medium (Lonza) in a flask till reaching ˜90% confluence, then cells are transferred to a 384-well plate at density of 3000-4000 cell/well. Recombinant human IL-17A (Gibco PHC9174) is pre-incubated with titrated compound or DMSO for 1 h at rt then added to the cell culture plate. The final concentration of IL-17A is 5 ng/mL and DMSO is 0.2%, in the culture containing 5% FBS. Cells are cultured/treated for 24 h at 37° C. Supernatants are collected and G-CSF production is measured through HTRF technology using Human G-CSF Kit (CisBio). G-CSF concentration was extrapolated from the standard curve and IC50 is determined using GraphPad Prism. Cell viability is also evaluated using CellTiter-Glo kit (Promega) and effect of compound on cell viability is compared to DMSO control.
In the case of `COC[C@H](c1cnn2cc([C@@H](NC(=O)c3nonc3C3CC3)[C@H]3[C@@H]4CC(F)(F)C[C@@H]43)nc2c1)N1CC(F)(F)CNC1=O` (relative stereo) [Example 51, 4-Cyclopropyl-N—((S*)-(7-((S)-1-(5,5-difluoro-2-oxotetrahydropyrimidin-1(2H)-yl)-2-methoxyethyl)imidazo[1,2-b]pyridazin-2-yl)((1R,5S,6r)-3,3-difluorobicyclo[3.1.0]hexan-6-yl)methyl)-1,2,5-oxadiazole-3-carboxamide], the IC50 is reported as < 50 nM. With `COC[C@H](c1cnn2cc([C@H](NC(=O)c3nonc3C3CC3)[C@@H]3CCC(F)(F)C3)nc2c1)N1CC(F)(F)CNC1=O` (relative stereo) [Example 52, 4-Cyclopropyl-N—((R*)-(7-((S)-1-(5,5-difluoro-2-oxotetrahydropyrimidin-1(2H)-yl)-2-methoxyethyl)imidazo[1,2-b]pyridazin-2-yl)((R*)-3,3-difluorocyclopentyl)methyl)-1,2,5-oxadiazole-3-carboxamide] the IC50 was < 50 nM. For `COC[C@H](c1cnn2cc([C@@H](NC(=O)c3nonc3C)[C@@H](C)OC(C)(C)C(F)(F)F)nc2c1)N1CC(F)(F)CNC1=O` (relative stereo) [Example 60, N-((1R*,2R*)-1-(7-((S)-1-(5,5-Difluoro-2-oxotetrahydropyrimidin-1(2H)-yl)-2-methoxyethyl)imidazo[1,2-b]pyridazin-2-yl)-2-((1,1,1-trifluoro-2-methylpropan-2-yl)oxy)propyl)-4-methyl-1,2,5-oxadiazole-3-carboxamide], the IC50 was < 50 nM. `CCOCC(c1cnn2cc([C@@H](NC(=O)c3nonc3C)C3CCC(F)(F)CC3)nc2c1)N1CC(F)(F)CNC1=O` (single isomer, unassigned) [Example 35, N—((S)-(7-((S*)-1-(5,5-Difluoro-2-oxotetrahydropyrimidin-1(2H)-yl)-2-ethoxyethyl)imidazo[1,2-b]pyridazin-2-yl)(4,4-difluorocyclohexyl)methyl)-4-methyl-1,2,5-oxadiazole-3-carboxamide] was tested, and the IC50 was < 50 nM. For `CCOCC(c1cnn2cc([C@@H](NC(=O)c3nonc3C3CC3)C3CCC(F)(F)CC3)nc2c1)N1CC(F)(F)CNC1=O` (single isomer, unassigned) [Example 36, 4-Cyclopropyl-N—((S)-(7-((S*)-1-(5,5-difluoro-2-oxotetrahydropyrimidin-1(2H)-yl)-2-ethoxyethyl)imidazo[1,2-b]pyridazin-2-yl)(4,4-difluorocyclohexyl)methyl)-1,2,5-oxadiazole-3-carboxamide], the IC50 was < 50 nM. `COC[C@H](c1cnn2cc(C(CCC(C)(C)C(F)(F)F)NC(=O)c3nonc3C3CC3)nc2c1)N1CC(F)(F)CNC1=O` (single isomer, unassigned) [Example 46, 4-Cyclopropyl-N—((S*)-1-(7-((S)-1-(5,5-difluoro-2-oxotetrahydropyrimidin-1(2H)-yl)-2-methoxyethyl)imidazo[1,2-b]pyridazin-2-yl)-5,5,5-trifluoro-4,4-dimethylpentyl)-1,2,5-oxadiazole-3-carboxamide] was tested, and the IC50 was < 50 nM. For `Cc1nonc1C(=O)N[C@H](c1cn2ncc([C@@H](C3CC3)N3CCC(C(F)(F)F)NC3=O)cc2n1)C1CCC(F)(F)CC1` (single isomer, unassigned) [Example 48, N—((S)-(7-((R)-Cyclopropyl((S*)-2-oxo-4-(trifluoromethyl)tetrahydropyrimidin-1(2H)-yl)methyl)imidazo[1,2-b]pyridazin-2-yl)(4,4-difluorocyclohexyl)methyl)-4-methyl-1,2,5-oxadiazole-3-carboxamide], the IC50 was > 100 nM. For `Cc1nonc1C(=O)N[C@H](c1cn2ncc(C(COC3CCC3)N3CC(F)(F)CNC3=O)cc2n1)C1CCC(F)(F)CC1` (single isomer, unassigned) [Example 57, N—((S)-(7-((S*)-2-Cyclobutoxy-1-(5,5-difluoro-2-oxotetrahydropyrimidin-1(2H)-yl)ethyl)imidazo[1,2-b]pyridazin-2-yl)(4,4-difluorocyclohexyl)methyl)-4-methyl-1,2,5-oxadiazole-3-carboxamide], the IC50 was < 50 nM. In the case of `Cc1nonc1C(=O)N[C@H](c1cn2ncc(C(COC(C)C)N3CC(F)(F)CNC3=O)cc2n1)C1CCC(F)(F)CC1` (single isomer, unassigned) [Example 58, N—((S)-(7-((S*)-1-(5,5-Difluoro-2-oxotetrahydropyrimidin-1(2H)-yl)-2-isopropoxyethyl)imidazo[1,2-b]pyridazin-2-yl)(4,4-difluorocyclohexyl)methyl)-4-methyl-1,2,5-oxadiazole-3-carboxamide], the IC50 is reported as < 50 nM. In the case of `CC(C)n1nccc1C(=O)N[C@H](c1cn2ncc([C@@H](COC3CC3)N3CC(F)(F)CNC3=O)cc2n1)C1CCC(F)(F)CC1` [Example 37, N—((S)-(7-((S)-2-Cyclopropoxy-1-(5,5-difluoro-2-oxotetrahydropyrimidin-1(2H)-yl)ethyl)imidazo[1,2-b]pyridazin-2-yl)(4,4-difluorocyclohexyl)methyl)-1-isopropyl-1H-pyrazole-5-carboxamide], the IC50 is reported as < 50 nM. `Cc1nocc1C(=O)N[C@H](c1cn2ncc([C@@H](COC3CC3)N3CC(F)(F)CNC3=O)cc2n1)C1CCC(F)(F)CC1` [Example 38, N—((S)-(7-((S)-2-Cyclopropoxy-1-(5,5-difluoro-2-oxotetrahydropyrimidin-1(2H)-yl)ethyl)imidazo[1,2-b]pyridazin-2-yl)(4,4-difluorocyclohexyl)methyl)-3-methylisoxazole-4-carboxamide] was tested, and the IC50 was < 50 nM. With `COC[C@H](c1cnn2cc([C@H](CC(C)(C)C(F)(F)F)NC(=O)c3nonc3C3CC3)nc2c1)N1CC(F)(F)CNC1=O` [Example 41, 4-Cyclopropyl-N—((S)-1-(7-((S)-1-(5,5-difluoro-2-oxotetrahydropyrimidin-1(2H)-yl)-2-methoxyethyl)imidazo[1,2-b]pyridazin-2-yl)-4,4,4-trifluoro-3,3-dimethylbutyl)-1,2,5-oxadiazole-3-carboxamide] the IC50 was < 50 nM. `COC[C@H](c1cnn2cc([C@@H](NC(=O)c3nonc3C3CC3)[C@@H](C)O[C@H](C)C(F)(F)F)nc2c1)N1CC(F)(F)CNC1=O` [Example 42, 4-Cyclopropyl-N-((1R,2R)-1-(7-((S)-1-(5,5-difluoro-2-oxotetrahydropyrimidin-1(2H)-yl)-2-methoxyethyl)imidazo[1,2-b]pyridazin-2-yl)-2-(((R)-1,1,1-trifluoropropan-2-yl)oxy)propyl)-1,2,5-oxadiazole-3-carboxamide] was tested, and the IC50 was < 50 nM. For `COC[C@H](c1cnn2cc([C@@H](NC(=O)c3nonc3C3CC3)[C@@H](C)O[C@@H](C)C(F)(F)F)nc2c1)N1CC(F)(F)CNC1=O` [Example 43, 4-Cyclopropyl-N-((1R,2R)-1-(7-((S)-1-(5,5-difluoro-2-oxotetrahydropyrimidin-1(2H)-yl)-2-methoxyethyl)imidazo[1,2-b]pyridazin-2-yl)-2-(((S)-1,1,1-trifluoropropan-2-yl)oxy)propyl)-1,2,5-oxadiazole-3-carboxamide], the IC50 was < 50 nM. With `CC(C)(C[C@H](NC(=O)c1nonc1C1CC1)c1cn2ncc([C@@H](COC3CC3)N3CC(F)(F)CNC3=O)cc2n1)C(F)(F)F` [Example 44, N—((S)-1-(7-((S)-2-Cyclopropoxy-1-(5,5-difluoro-2-oxotetrahydropyrimidin-1(2H)-yl)ethyl)imidazo[1,2-b]pyridazin-2-yl)-4,4,4-trifluoro-3,3-dimethylbutyl)-4-cyclopropyl-1,2,5-oxadiazole-3-carboxamide] the IC50 was < 50 nM. In the case of `Cc1nonc1C(=O)N[C@H](c1cn2ncc([C@@H](C3CC3)N3CCC4(CC4)NC3=O)cc2n1)C1CCC(F)(F)CC1` [Example 47, N—[(S)-[7-[(R)-Cyclopropyl-(7-oxo-6,8-diazaspiro[2.5]octan-6-yl)methyl]imidazo[1,2-b]pyridazin-2-yl]-(4,4-difluorocyclohexyl)methyl]-4-methyl-1,2,5-oxadiazole-3-carboxamide], the IC50 is reported as > 100 nM. With `Cc1nonc1C(=O)N[C@@H](CC(C)(C)C(F)(F)F)c1cn2ncc([C@@H](COC3CC3)N3CC(F)(F)CNC3=O)cc2n1` [Example 50, N—((S)-1-(7-((S)-2-Cyclopropoxy-1-(5,5-difluoro-2-oxotetrahydropyrimidin-1(2H)-yl)ethyl)imidazo[1,2-b]pyridazin-2-yl)-4,4,4-trifluoro-3,3-dimethylbutyl)-4-methyl-1,2,5-oxadiazole-3-carboxamide] the IC50 was < 50 nM.

Same assay, conditions: IL-17A 5 ng/mL, 24 h, G-CSF by HTRF; average if tested more than once
“4-Cyclopropyl-N—((R)-1-(7-((S)-1-(5,5-difluoro-2-oxotetrahydropyrimidin-1(2H)-yl-4,4,6,6-d4)-2-methoxyethyl)imidazo[1,2-b]pyridazin-2-yl)-2-((1,1,1-trifluoro-2-methylpropan-2-yl)oxy)ethyl)-1,2,5-oxadiazole-3-carboxamide [Example 39]” was tested, and the IC50 was < 50 nM. For `Cc1nonc1C(=O)N[C@H](c1cn2ncc([C@@H](C3CC3)N3CCC(C(F)(F)F)NC3=O)cc2n1)C1CCC(F)(F)CC1` (single isomer, unassigned) [Example 49, N—((S)-(7-((R)-Cyclopropyl((R*)-2-oxo-4-(trifluoromethyl)tetrahydropyrimidin-1(2H)-yl)methyl)imidazo[1,2-b]pyridazin-2-yl)(4,4-difluorocyclohexyl)methyl)-4-methyl-1,2,5-oxadiazole-3-carboxamide], the IC50 was > 100 nM.
